Measured values reported in the supplement of paper PMC11208160.

Experiment: recombinant UMI read abundance after kanamycin selection (control-corrected) (log10(CPM+1)); higher = more efficient recombination; extreme values may be limits of the assay; sequences stand for … in AGTGCAGAGAAAATCGGCCAGTTTTCTCTGCCTGCAGTCCGCATGCCGTGGGACCCCTTGGGTTCTAACCTGTTGCCTAGATTTATGCAGCGGACTGCCTTTCTCCCAAAGTGATAAACCGG…AGGTTGGTTTCACT; site = the 11-nt donor
In short: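 The measure is log10(CPM+1) for recombinant UMIs. These were PCR-amplified across the donor–target junction and sequenced after Escherichia coli carrying a donor and donor-binding-loop pair library and a target plasmid with T7-inducible IS621 bridge recombinase was plated on IPTG (0.07 mM) plus kanamycin or unselected. CPM were averaged over two replicates and scaled by control-derived factors.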
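Further: IS621 bridge recombinase in Escherichia coli cells against a fixed T5 target plasmid.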

Sequence | recombinant UMI read abundance (log10)
ACTAGTACATGGACCGGTTTTCCCGGTAATCCGTATTTGAC (site ACTAGTACTGT) | 2.14
CAGTCGACATGGACCGGTTTTCCCGGTAATCCGTATTTGGG (site CAGTCGACTTC) | 0.00419
CCTTAACCATGGACCGGTTTTCCCGGTAATCCGTATTTGCT (site CCTTAACCTAG) | 0
CCCTTATCATGGACCGGTTTTCCCGGTAATCCGTATTTGTC (site CCCTTATCTGA) | 0.909
CCAGGTGCATGGACCGGTTTTCCCGGTAATCCGTATTTGAT (site CCATGTGCTAT) | 0.018
TAACGTTCATGGACCGGTTTTCCCGGTAATCCGTATTTGCA (site TAACGTTCTTG) | 1.75
ACAGAATCATGGACCGGTTTTCCCGGTAATCCGTATTTGCT (site ACAGAATCTAG) | 2.19
CATTTGGCATGGACCGGTTTTCCCGGTAATCCGTATTTGCT (site CTTTTGGCTAG) | 0.00821
GGCCACCCATGGACCGGTTTTCCCGGTAATCCGTATTTGTT (site GGGCACCCTAA) | 0.0781
CCCTTCTCATGGACCGGTTTTCCCGGTAATCCGTATTTGCG (site CCCTTCTCTCT) | 0.061
CAAGAATCATGGACCGGTTTTCCCGGTAATCCGTATTTGAC (site CAAGAATCTGT) | 2.88
CTCCCTACATGGACCGGTTTTCCCGGTAATCCGTATTTGAG (site CTCCCTACTGT) | 0
CTAGGATCATGGACCGGTTTTCCCGGTAATCCGTATTTGAC (site CTAGCATCTGT) | 1.06
ATAAGGCCATGGACCGGTTTTCCCGGTAATCCGTATTTGAC (site ATATGGCCTGT) | 0.00516
CGTTGTACATGGACCGGTTTTCCCGGTAATCCGTATTTGCT (site CGTTGTACTAG) | 1.39
GCATGCGCATGGACCGGTTTTCCCGGTAATCCGTATTTGTT (site GCATGCGCTAA) | 1.82
CCCTTCTCATGGACCGGTTTTCCCGGTAATCCGTATTTGCG (site CCCTTCTCTCA) | 0.02
CCACATCCATGGACCGGTTTTCCCGGTAATCCGTATTTGAC (site GCACATCCTGT) | 0
ACCTCAGCATGGACCGGTTTTCCCGGTAATCCGTATTTGGG (site AACTCAGCTCC) | 0.0172
GGTACGTCATGGACCGGTTTTCCCGGTAATCCGTATTTGTT (site GGTACGACTAA) | 0.0066
CTCTACACATGGACCGGTTTTCCCGGTAATCCGTATTTGCT (site CCCTACACTAG) | 2.09
AGGACTACATGGACCGGTTTTCCCGGTAATCCGTATTTGCT (site AGGACTACTAG) | 2.5
GGTGGTCCATGGACCGGTTTTCCCGGTAATCCGTATTTGCC (site GGTGGTCCTGG) | 0
AGGAAGACATGGACCGGTTTTCCCGGTAATCCGTATTTGCA (site AGGAAGTCTTA) | 0.81
AGGCAGACATGGACCGGTTTTCCCGGTAATCCGTATTTGCA (site AGGTAGACTTG) | 0.965

Sequence | recombinant UMI read abundance (log10)
GGAACTACATGGACCGGTTTTCCCGGTAATCCGTATTTGCC (site GGAACTACTGG) | 1.05
CGAGGAACATGGACCGGTTTTCCCGGTAATCCGTATTTGGG (site CGAGGATCTCC) | 1.59
CGGACATCATGGACCGGTTTTCCCGGTAATCCGTATTTGCT (site CGGACATCTCG) | 0.0134
GCCAAACCATGGACCGGTTTTCCCGGTAATCCGTATTTGGT (site GACAAACCTAC) | 0
GTACTACCATGGACCGGTTTTCCCGGTAATCCGTATTTGTG (site GTACTACCTCA) | 0.00602
ACCAATTCATGGACCGGTTTTCCCGGTAATCCGTATTTGCC (site TCCAATTCTGG) | 0.66
CAACCAGCATGGACCGGTTTTCCCGGTAATCCGTATTTGCT (site CAAGCAGCTAG) | 0
TCTACACCATGGACCGGTTTTCCCGGTAATCCGTATTTGAC (site TCTACACCTGT) | 0
ACATCTACATGGACCGGTTTTCCCGGTAATCCGTATTTGAG (site ACATCTACTCT) | 1.67
TCTTTGGCATGGACCGGTTTTCCCGGTAATCCGTATTTGTG (site TTTTTGGCTCA) | 0.0253
ATCCTATCATGGACCGGTTTTCCCGGTAATCCGTATTTGAC (site ATCCTATCTGT) | 1.58
CTGGTATCATGGACCGGTTTTCCCGGTAATCCGTATTTGAA (site CTGGTATCTTT) | 2.5
AAGCGTCCATGGACCGGTTTTCCCGGTAATCCGTATTTGAT (site AACCGTCCTAT) | 0.281
CGTGGTACATGGACCGGTTTTCCCGGTAATCCGTATTTGTT (site CGTGGAACTAA) | 0.177
ATTGTAACATGGACCGGTTTTCCCGGTAATCCGTATTTGCT (site ATTGTAACTAG) | 2.15
AAGCTCGCATGGACCGGTTTTCCCGGTAATCCGTATTTGGG (site AAGCTCGCTCC) | 0.0176
CCCACATCATGGACCGGTTTTCCCGGTAATCCGTATTTGTC (site CCCAGATCTGA) | 0
GAGTCGACATGGACCGGTTTTCCCGGTAATCCGTATTTGGG (site AAGTCGACTCC) | 0.257
AGGAAGACATGGACCGGTTTTCCCGGTAATCCGTATTTGCA (site AGGAAGACTCA) | 0.0159
GGTACGTCATGGACCGGTTTTCCCGGTAATCCGTATTTGTG (site GGTACGTCTTA) | 0
GCTTGCCCATGGACCGGTTTTCCCGGTAATCCGTATTTGAA (site GCTTGCCCTCT) | 0.00774
ACGCGGCCATGGACCGGTTTTCCCGGTAATCCGTATTTGCA (site ACGCGGCCTTG) | 1.1
CAATTACCATGGACCGGTTTTCCCGGTAATCCGTATTTGCT (site CAATTGCCTAG) | 0
GCGAAGGCATGGACCGGTTTTCCCGGTAATCCGTATTTGGG (site GCGAAGGCTCC) | 0.562
ACTAAAACATGGACCGGTTTTCCCGGTAATCCGTATTTGAG (site ACTATAACTCT) | 0.376

Sequence | recombinant UMI read abundance (log10)
AGCTAGACATGGACCGGTTTTCCCGGTAATCCGTATTTGGG (site ATCTAGACTCC) | 0.0227
CGGGGGTCATGGACCGGTTTTCCCGGTAATCCGTATTTGCC (site CGGGCGTCTGG) | 1.7
CTCTAGCCATGGACCGGTTTTCCCGGTAATCCGTATTTGCC (site CGCTAGCCTGG) | 0
GAATGGCCATGGACCGGTTTTCCCGGTAATCCGTATTTGCT (site GAATGGCCTTG) | 0
ATGTATGCATGGACCGGTTTTCCCGGTAATCCGTATTTGGC (site ATGTATGCTGC) | 3.22
CTCTACACATGGACCGGTTTTCCCGGTAATCCGTATTTGCT (site CGCTACACTAG) | 0.891
GGAAATCCATGGACCGGTTTTCCCGGTAATCCGTATTTGGG (site GGAAATCCTCC) | 0.00368
ACCAATTCATGGACCGGTTTTCCCGGTAATCCGTATTTGCC (site ACCAATTCTGG) | 2.25
ATCTACACATGGACCGGTTTTCCCGGTAATCCGTATTTGCT (site ATCTACACTAG) | 2.26
CTCCCTACATGGACCGGTTTTCCCGGTAATCCGTATTTGAG (site CTCGCTACTCT) | 0.0283
CTACTGACATGGACCGGTTTTCCCGGTAATCCGTATTTGGA (site CTACTTACTTC) | 0.67
GAGACGCCATGGACCGGTTTTCCCGGTAATCCGTATTTGCC (site GAGACGCCTGG) | 0
CTAGTATCATGGACCGGTTTTCCCGGTAATCCGTATTTGGT (site CTAGTATCTGT) | 2.06
GGGGCACCATGGACCGGTTTTCCCGGTAATCCGTATTTGCC (site GGGGCACCTTG) | 0.00491
CGCCTAGCATGGACCGGTTTTCCCGGTAATCCGTATTTGTT (site TGCCTAGCTAA) | 0.00877
AGAAAAGCATGGACCGGTTTTCCCGGTAATCCGTATTTGCT (site AGAAAAGCTAG) | 2.12
GTGGACGCATGGACCGGTTTTCCCGGTAATCCGTATTTGTG (site GTGGATGCTCA) | 0.653
AGGAAGACATGGACCGGTTTTCCCGGTAATCCGTATTTGCA (site CGGAAGACTGG) | 0
AACCGCCCATGGACCGGTTTTCCCGGTAATCCGTATTTGAT (site AACCGCCCTAT) | 0.00906
AGGAAGACATGGACCGGTTTTCCCGGTAATCCGTATTTGCA (site AGAGAGACTTG) | 1.79
GATCGGACATGGACCGGTTTTCCCGGTAATCCGTATTTGAC (site GATCGGACTGT) | 1.11
GCACATCCATGGACCGGTTTTCCCGGTAATCCGTATTTGAC (site ACACATCCTGT) | 2.23
GGTACGTCATGGACCGGTTTTCCCGGTAATCCGTATTTGTT (site GGTACGGCTAA) | 0.0154
GAAAGTCCATGGACCGGTTTTCCCGGTAATCCGTATTTGTA (site TAAAGTCCTTA) | 1.01
GGGAAACCATGGACCGGTTTTCCCGGTAATCCGTATTTGGC (site GGGAAACCTGC) | 0
